In one experiment the test system is CAR T cells. The experiment is described as follows: T cell exhaustion markers TIM3 and LAG3 on CAR T cells in co-culture (flow cytometry). The class given is cell-based, human. As to conditions: CAR T:tumour cell co-culture, concentrations of Table 2. Here is the method: UR-13870, Ralimetinib or Acumapimod are each added to a culture of CD19+ cancer cells (using a micropipette to transfer the correct volume to achieve the desired final concentration in Table 2).
CAR T cells are then added to the same culture 5-10 minutes later. In brief, CAR T cell concentrations per ml are determined and used to aliquot the desired number of CAR T cells into the culture to achieve the described 1:1 CAR T to cancer cell ratio.
The co-culture containing CAR T cells and tumour cells is swirled gently to ensure homogenous dispersion of cells throughout the vessel. The resultant co-culture is incubated for 24 to 96 hours in a closed incubator at 37° C. with 5% CO2 and a suitably humid atmosphere.
Both T cell surface markers T cell immunoglobulin and mucin domain-containing protein 3 (TIM3/CD366) and Lymphocyte Activation Gene 3 (LAG3/CD223) are associated with T cell exhaustion and disease progression during immunotherapy treatment. Advantageously, all of UR-13870, Ralimetinib and Acumapimod reduce both the number of TIM3+ CAR T cells, and the number of LAG3+ CAR T cells. […] For LAG3+, the results for Ralimetinib at a 5 μM concentration appear to have been affected by experimental failure, and these may be disregarded accordingly.
Background: In flow cytometry, cells or beads pass a laser one at a time.

In experiment [1] the test system is HUVEC endothelial cells. As to the kind of experiment: IL-6 and IL-8 ELISA of HUVEC cells treated with sCART-mono supernatant. The class given is cell-based, human. The conditions noted are these: 24 hr, concentrations of Table 2. Here is the method: (§1) With reference to FIG. 13 of the accompanying drawings, a co-culture (100) is established using a standard cell culture transwell dish, including a first compartment (101), containing CAR T cells and cancer cells (at a 1:1 ratio), which is separated from a second compartment (102), containing monocytes, by a semi-permeable membrane (103) composed of tissue-culture treated polyethylene terephthalate with a 0.4 μm pore size.
(§2) Each of UR-13870, Acumapimod and Ralimetinib are administered to the co-culture following a procedure analogous to that described in Example 2 above (at the concentrations as shown in Table 2 above).
(§3) The co-culture is incubated at 37° C., 5% CO2 and a suitably humid environment for 24 hours. On completion, the transwell insert is removed and supernatant is isolated. Cells and debris are removed from the supernatant by exposing the container to a centripetal force of 400 G and gently pipetting the supernatant into a new container without disturbing the cell pellet at the bottom of the previous container.
(§4) Prior to adding the p38 inhibitors and sCART-mono, endothelial cells are incubated overnight at 37° C. and 5% CO2 in a suitably humid environment to allow the cells to adhere fully to the tissue culture dish.
Supernatant levels of IL-6 and IL-8 are determined following 24 hr treatment with sCART-mono and the p38 MAPK inhibitors by ELISA.
(In general: ELISA stands for enzyme-linked immunosorbent assay.)

Experiment [2] has as its system HUVEC endothelial cells. As to the kind of experiment: QPCR of ICAM1 in HUVEC cells treated with sCART-mono supernatant. The class given is cell-based, human. As to conditions: 24 hours. As to the method: as §1, §2, §3, §4
Reduced endothelial cell activation is evidenced by reduced ICAM1 expression in response to treatment with UR-13870, Acumapimod and Ralimetinib.

The test system of experiment [3] is PBMC-humanized NSG-MHC I/II double knock-out mice with Raji-Luc CD19-expressing cancer cells. The experiment is described as follows: In vivo (murine) model using CAR T for CRS induction. Set-up: species or system mouse. Here is the method: An outline of the timeline of the model is provided in FIG. 16; it commences on Study Day −5 and ends on Study Day 10.
Thus, on Study Day −5, 30 female 6- to 8-week-old NSG-(KbDb)null (IA)null mice are irradiated at 100 cGy. 4 hours later, on the same day (Study Day −5) they are each injected, via tail vein, with 0.25×10^6 Raji-Luc CD19-expressing cancer cells (a Raji wild-type cell line with stable and high expression of luciferase, enabling detection of cancer burden by […]).
On Study Day −2, clinical observation commences for all 30 mice (including body weight monitoring) and all 30 mice are imaged using in vivo […] imaging (IVIS). For IVIS, mice are intraperitoneally injected with 150 mg/kg D-Luciferin. 10 minutes after the D-Luciferin injection, mice are imaged dorsally and ventrally (auto exposure) using an IVIS Lumina system (obtainable from PerkinElmer of Chalfont Road, Seer Green, Beaconsfield, HP9 2FX, UK). Region of interest (ROI) are drawn for each mouse to capture its whole body, and total flux (p/s) is reported. IVIS imaging of all 30 mice continues on a biweekly basis throughout the study, thereby monitoring cancer cell burden. Daily clinical observation continues throughout the study, including observation of CRS, CRS being scored as follows:
25 of the mice are injected intraperitoneally, on Study Day 0, with 5×10^6 anti-CD19 CAR T cells in phosphate-buffered saline.
As a control, a group consisting of 5 of the mice (“Group 1”) are not administered CAR T cells. Beginning on Study Day −1 and ending on Study Day 9, Group 1 receive treatment with 0.5% (w:v) HPMC, 0.1% (w:v) Tween 80 in sWFI (vehicle/control), administered BID at 5 mL/kg.
The 25 mice administered CAR T cells are divided into groups of 5 mice per group. […]

The values below come from US20260115177A1, “MEDICINAL PRODUCTS AND METHODS FOR THE ALLEVIATION OF CANCER IMMUNOTHERA-PY-ASSOCIATED CYTOKINE RELEASE SYNDROME” (POOLBEG PHARMA (UK) LIMITED, priority 2023, published 2026).

`OCCCn1cc2c(-c3ccc(F)cc3)c(-c3ccncc3)c(-c3ccc(F)cc3)nc2n1` [UR-13870, 6-bis(4-fluorophenyl)-5-(4-pyridinyl)-2Hpyrazolo[3,4-b]pyridine-2-propanol]: the “number of TIM3+ CAR T cells” value with CAR T cells is given as “reduce”. The “number of LAG3+ CAR T cells” value in the experiment on CAR T cells (Ralimetinib 5 μM results to be disregarded) was “reduce”. In addition, in the experiment on HUVEC endothelial cells [1], the “IL-6 levels in supernatant” value is listed as “reduced” and the “IL-8 levels in supernatant” value was “(albeit non-significant) downward trend”. Besides, the “ICAM1 expression (endothelial cell activation)” value with HUVEC endothelial cells [2] is reported as “reduced”. Also, the “CAR T cell expansion (flow cytometry)” value in experiment [3] (blood, Study Days 2, 6 and 10) was “successfully maintained”. For the same compound, the “CAR T cell therapy efficacy, tumour burden (IVIS)” value in experiment [3] (day 7 and day 9, UR-13870 2, 10, 25 mg/kg BID s.c., Humira 5 mg/kg i.p. once) was “remained efficacious”. Moreover, in experiment [3] (day 10, high dose (25 mg/kg BID)), the “number of CAR T cells in circulation” value is recorded as “significantly enhanced”.
